# Assay results published in the supplement of paper PMC9663587.
# What was measured:
# Test in all cases: GR value, 72 h; higher = faster growth (1 = untreated, <0 = killing);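 note: breast cancer and non-malignant breast epithelial lines, nine half-log doses, viable cells counted by Hoechst and LIVE/DEAD dye imaging versus time-zero plates and DMSO controls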
# R0-3306 = compound: C1=CC2=C(C=CC(=C2)C=C3C(=O)NC(=NCC4=CC=CS4)S3)N=C1 [R0-3306]
# [1] = compound: CC(=O)Nc1cccc(-n2c(=O)n(C3CC3)c(=O)c3c(Nc4ccc(I)cc4F)n(C)c(=O)c(C)c32)c1
# BVD523 = compound: CC(C)Nc1cc(-c2c[nH]c(C(=O)N[C@H](CO)c3cccc(Cl)c3)c2)c(Cl)cn1 [BVD523]
# [2] = compound: CCCCOc1c(C(=O)c2c(F)cc(C)cc2F)c[nH]c2nncc1-2
# senexin b = compound: CN1CCN(C(=O)c2ccc3cc(CCNc4ncnc5ccc(C#N)cc45)ccc3c2)CC1 [senexin b]
# Rucaparib = compound: CNCc1ccc(-c2[nH]c3cc(F)cc4c3c2CCNC4=O)cc1 [Rucaparib]
# [3] = compound: CO[C@@H](C)Cn1c(=O)n(C)c2cnc3ccc(-c4cncc(C(C)(C)O)c4)cc3c21
# Cediranib/AZD2171 = compound: COc1cc2c(Oc3ccc4[nH]c(C)cc4c3F)ncnc2cc1OCCCN1CCCC1 [Cediranib/AZD2171]
# Cabozantinib = compound: COc1cc2nccc(Oc3ccc(NC(=O)C4(C(=O)Nc5ccc(F)cc5)CC4)cc3)c2cc1OC [Cabozantinib]
# [4] = compound: COc1cccc(OCCCN)c1-c1cc(Nc2cnc(C#N)cn2)n[nH]1
# Doxorubicin = compound: COc1cccc2c1C(=O)c1c(O)c3c(c(O)c1C2=O)C[C@@](O)(C(=O)CO)C[C@@H]3O[C@H]1C[C@H](N)[C@H](O)[C@H](C)O1 [Doxorubicin]
# Pictilisib/GDC0941 = compound: CS(=O)(=O)N1CCN(Cc2cc3nc(-c4cccc5[nH]ncc45)nc(N4CCOCC4)c3s2)CC1 [Pictilisib/GDC0941]
cell line,measurement,setting,value
AU565,GR value,R0-3306; 0.001 µM,0.805 GR
same,GR value,R0-3306; 0.003162 µM,0.756 GR
same,GR value,R0-3306; 0.01 µM,0.522 GR
same,GR value,R0-3306; 0.03162 µM,0.735 GR
same,GR value,R0-3306; 0.1 µM,0.692 GR
same,GR value,R0-3306; 0.3162 µM,0.711 GR
same,GR value,R0-3306; 1 µM,0.548 GR
same,GR value,R0-3306; 3.162 µM,0.375 GR
same,GR value,R0-3306; 10 µM,-0.214 GR
same,GR value,[1]; 0.0001 µM,1.05 GR
same,GR value,[1]; 0.0003162 µM,0.96 GR
same,GR value,[1]; 0.001 µM,1.08 GR
same,GR value,[1]; 0.003162 µM,1.05 GR
same,GR value,[1]; 0.01 µM,1.02 GR
same,GR value,[1]; 0.03162 µM,0.968 GR
same,GR value,[1]; 0.1 µM,1.08 GR
same,GR value,[1]; 0.3162 µM,1.02 GR
same,GR value,[1]; 1 µM,1.01 GR
same,GR value,BVD523; 0.001 µM,1.17 GR
same,GR value,BVD523; 0.003162 µM,0.925 GR
same,GR value,BVD523; 0.01 µM,1.04 GR
same,GR value,BVD523; 0.03162 µM,0.941 GR
same,GR value,BVD523; 0.1 µM,1.06 GR
same,GR value,BVD523; 0.3162 µM,0.956 GR
same,GR value,BVD523; 1 µM,0.985 GR
same,GR value,BVD523; 3.162 µM,0.761 GR
same,GR value,BVD523; 10 µM,0.525 GR
same,GR value,[2]; 0.001 µM,0.763 GR
same,GR value,[2]; 0.003162 µM,0.828 GR
same,GR value,[2]; 0.01 µM,0.656 GR
same,GR value,[2]; 0.03162 µM,0.622 GR
same,GR value,[2]; 0.1 µM,0.545 GR
same,GR value,[2]; 0.3162 µM,0.489 GR
same,GR value,[2]; 1 µM,0.372 GR
same,GR value,[2]; 3.162 µM,0.0322 GR
same,GR value,[2]; 10 µM,-0.151 GR
same,GR value,senexin b; 0.001 µM,1.02 GR
same,GR value,senexin b; 0.003162 µM,0.919 GR
same,GR value,senexin b; 0.01 µM,0.88 GR
same,GR value,senexin b; 0.03162 µM,1.05 GR
same,GR value,senexin b; 0.1 µM,0.897 GR
same,GR value,senexin b; 0.3162 µM,0.904 GR
same,GR value,senexin b; 1 µM,0.786 GR
same,GR value,senexin b; 3.162 µM,0.768 GR
same,GR value,senexin b; 10 µM,0.913 GR
same,GR value,Rucaparib; 0.001 µM,0.952 GR
same,GR value,Rucaparib; 0.003162 µM,1.09 GR
same,GR value,Rucaparib; 0.01 µM,0.804 GR
same,GR value,Rucaparib; 0.03162 µM,0.916 GR
same,GR value,Rucaparib; 0.1 µM,0.925 GR
same,GR value,Rucaparib; 0.3162 µM,0.845 GR
same,GR value,Rucaparib; 1 µM,1.01 GR
same,GR value,Rucaparib; 3.162 µM,0.932 GR
same,GR value,Rucaparib; 10 µM,0.714 GR
same,GR value,[3]; 0.001 µM,0.518 GR
same,GR value,[3]; 0.003162 µM,0.487 GR
same,GR value,[3]; 0.01 µM,0.464 GR
same,GR value,[3]; 0.03162 µM,0.273 GR
same,GR value,[3]; 0.1 µM,0.269 GR
same,GR value,[3]; 0.3162 µM,0.0911 GR
same,GR value,[3]; 1 µM,0.0661 GR
same,GR value,[3]; 3.162 µM,-0.0273 GR
same,GR value,[3]; 10 µM,-0.533 GR
same,GR value,Cediranib/AZD2171; 0.001 µM,1.04 GR
same,GR value,Cediranib/AZD2171; 0.003162 µM,0.989 GR
same,GR value,Cediranib/AZD2171; 0.01 µM,1.07 GR
same,GR value,Cediranib/AZD2171; 0.03162 µM,1.07 GR
same,GR value,Cediranib/AZD2171; 0.1 µM,1.06 GR
same,GR value,Cediranib/AZD2171; 0.3162 µM,1.22 GR
same,GR value,Cediranib/AZD2171; 1 µM,1.2 GR
same,GR value,Cediranib/AZD2171; 3.162 µM,1.08 GR
same,GR value,Cediranib/AZD2171; 10 µM,0.941 GR
same,GR value,Cabozantinib; 0.001 µM,1.03 GR
same,GR value,Cabozantinib; 0.003162 µM,1.04 GR
same,GR value,Cabozantinib; 0.01 µM,1.03 GR
same,GR value,Cabozantinib; 0.03162 µM,1.06 GR
same,GR value,Cabozantinib; 0.1 µM,1.06 GR
same,GR value,Cabozantinib; 0.3162 µM,1.12 GR
same,GR value,Cabozantinib; 1 µM,0.997 GR
same,GR value,Cabozantinib; 3.162 µM,1.02 GR
same,GR value,Cabozantinib; 10 µM,0.309 GR
same,GR value,[4]; 10 pM,0.889 GR
same,GR value,[4]; 31.6 pM,0.97 GR
same,GR value,[4]; 0.0001 µM,1.1 GR
same,GR value,[4]; 0.0003162 µM,1.09 GR
same,GR value,[4]; 0.001 µM,0.219 GR
same,GR value,[4]; 0.003162 µM,0.112 GR
same,GR value,[4]; 0.01 µM,0.0322 GR
same,GR value,[4]; 0.03162 µM,0.0412 GR
same,GR value,[4]; 0.1 µM,0.077 GR
same,GR value,Doxorubicin; 0.0003162 µM,1.09 GR
same,GR value,Doxorubicin; 0.001 µM,1.03 GR
same,GR value,Doxorubicin; 0.003162 µM,1.05 GR
same,GR value,Doxorubicin; 0.01 µM,1.01 GR
same,GR value,Doxorubicin; 0.03162 µM,0.553 GR
same,GR value,Doxorubicin; 0.1 µM,-0.11 GR
same,GR value,Doxorubicin; 0.3162 µM,-0.234 GR
same,GR value,Doxorubicin; 1 µM,-0.385 GR
same,GR value,Doxorubicin; 3.162 µM,-0.452 GR
same,GR value,Pictilisib/GDC0941; 0.001 µM,0.964 GR
same,GR value,Pictilisib/GDC0941; 0.003162 µM,0.961 GR
same,GR value,Pictilisib/GDC0941; 0.01 µM,0.898 GR
same,GR value,Pictilisib/GDC0941; 0.03162 µM,0.642 GR
same,GR value,Pictilisib/GDC0941; 0.1 µM,0.37 GR
same,GR value,Pictilisib/GDC0941; 0.3162 µM,0.101 GR
same,GR value,Pictilisib/GDC0941; 1 µM,-0.096 GR
same,GR value,Pictilisib/GDC0941; 3.162 µM,-0.251 GR
same,GR value,Pictilisib/GDC0941; 10 µM,-0.391 GR
